# In patent US20250346604A1, “TRIAZOLOPYRIDAZINE COMPOUNDS USEFUL AS RAC1 INHIBITORS” (Revere Pharmaceuticals, priority 2022, published 2025):
# Like-named read-outs stand apart in the source and are kept apart here.
# Key:
# [1] = biological target: T1, Rac1 (Homo sapiens (Human), UniProt P63000); test: Rac Activation AlphaScreen Assay (RacI AS); assay type: biochemical
# Protocol: 2. Rac Activation AlphaScreen Assay (RacI AS)
# AlphaScreen® assays were performed in 96-well microplates in a final reaction volume of 60 μL. Recombinant His-Rac1, recombinant GST-PBD (PAK Binding Domain), donor and acceptor beads (PerkinElmer), and inhibitors were incubated in exchange buffer (20 mM Tris pH 7.5, 50 mM NaCl, 1 mM MgCl2, 1 mM EDTA, 500 nM GTPyS (guanosine 5′-[Y-thio]triphosphate)) at 37° C. Readings were performed on a Tecan M 1000 pro microplate reader after 1 hour. Data was analyzed using the GraphPad Prism software (GraphPad Software, Inc.), and IC50 (dose leading to 50% disruption of complex) was calculated from the dose-response curves.
# [2] = tested on: MCF-7 human breast cancer cell line; test: Cell Viability Assay (MCF7); assay type: cell-based; settings: MCF7, three days after drug treatment
# Protocol: 1. Cell Viability Assay (MCF7)
# In order to determine a compound's effect on cell viability, PrestoBlue assays were performed as previously described by Kuhn et al. (2013) with modifications. MCF-7 human breast cancer and IGR-1 human melanoma cell lines were seeded into 384-well plates 24 hours prior to addition of drug. Cells are treated with 0 to 100 μM (concentrations) of compound solubilized in DMSO, adjusting the final concentration of DMSO to 0.5% in the well. Three days after drug treatment, cell viability was measured by adding Cell Titer Glo (Promega.; cat. No. G7570) according to the manufacturer's instructions. Briefly, Cell Titer Glo Substrate is diluted in Cell Titer Glo Buffer making the Cell Titer Glo Reagent. Cell Titer Glo Reagent is added to each well, mixed for 2 minutes to lyse cell, and then luficerase signal is read on a plate reader. Data is analyzed using the GraphPad Prism software (GraphPad Software, Inc.), and IC50 (dose leading to 50% cell death) was calculated from the dose-response curves. The percentage of living cells was then computed by comparison with control wells. Kuhn, Jonas et al., Assay and Drug Development Technologies, March 2013, Label-Free Cytotoxicity Screening Assay by Digital Holographic Microscopy.
# [3] = Mouse Liver Microsome (MLM) Stability Assay; assay type: in vitro ADME; settings: for microsomal CLint / MLM Clearance (μL/min/mg protein): mouse liver microsomes
# Protocol: 5. Mouse Liver Microsome (MLM) Stability Assay
# Incubation of test compounds with mouse liver microsomes in the presence of NADPH co-factor was used to assay the in vitro mouse liver microsome metabolic clearance rate. In the presence of the co-factor NADPH, which initiates the reaction, mouse liver microsomes were incubated with test compounds at 37° C. at fixed time intervals. After centrifugation, supernatants were measured by LC/M S. The amount of compound at each time interval was compared to the amount of compound present at the 0 minute timepoint and percentage compound remaining values were calculated. MLM intrinsic clearance (Clint) (μL/min/mg protein) is calculated based on compound half-life.
# [4] = tested on: over 90 kinases; test: commercial kinase screen (KinaseScan by Eurofins Discovery); assay type: binding; settings: at a concentration that was substantially inhibitory for Rac1
# Protocol: (§1) The disclosed compounds in general have no or minimal activity against c-M et. Representative compounds were tested in a commercial kinase screen of over 90 kinases (KinaseScan by Eurofins Discovery).
# [5] = biological target: c-M et (Homo sapiens (Human), UniProt P08581); test: commercial kinase screen (KinaseScan by Eurofins Discovery), c-Met; assay type: binding; settings: at a concentration that was substantially inhibitory for Rac1
# Chain of c-M et (P08581 25-1390): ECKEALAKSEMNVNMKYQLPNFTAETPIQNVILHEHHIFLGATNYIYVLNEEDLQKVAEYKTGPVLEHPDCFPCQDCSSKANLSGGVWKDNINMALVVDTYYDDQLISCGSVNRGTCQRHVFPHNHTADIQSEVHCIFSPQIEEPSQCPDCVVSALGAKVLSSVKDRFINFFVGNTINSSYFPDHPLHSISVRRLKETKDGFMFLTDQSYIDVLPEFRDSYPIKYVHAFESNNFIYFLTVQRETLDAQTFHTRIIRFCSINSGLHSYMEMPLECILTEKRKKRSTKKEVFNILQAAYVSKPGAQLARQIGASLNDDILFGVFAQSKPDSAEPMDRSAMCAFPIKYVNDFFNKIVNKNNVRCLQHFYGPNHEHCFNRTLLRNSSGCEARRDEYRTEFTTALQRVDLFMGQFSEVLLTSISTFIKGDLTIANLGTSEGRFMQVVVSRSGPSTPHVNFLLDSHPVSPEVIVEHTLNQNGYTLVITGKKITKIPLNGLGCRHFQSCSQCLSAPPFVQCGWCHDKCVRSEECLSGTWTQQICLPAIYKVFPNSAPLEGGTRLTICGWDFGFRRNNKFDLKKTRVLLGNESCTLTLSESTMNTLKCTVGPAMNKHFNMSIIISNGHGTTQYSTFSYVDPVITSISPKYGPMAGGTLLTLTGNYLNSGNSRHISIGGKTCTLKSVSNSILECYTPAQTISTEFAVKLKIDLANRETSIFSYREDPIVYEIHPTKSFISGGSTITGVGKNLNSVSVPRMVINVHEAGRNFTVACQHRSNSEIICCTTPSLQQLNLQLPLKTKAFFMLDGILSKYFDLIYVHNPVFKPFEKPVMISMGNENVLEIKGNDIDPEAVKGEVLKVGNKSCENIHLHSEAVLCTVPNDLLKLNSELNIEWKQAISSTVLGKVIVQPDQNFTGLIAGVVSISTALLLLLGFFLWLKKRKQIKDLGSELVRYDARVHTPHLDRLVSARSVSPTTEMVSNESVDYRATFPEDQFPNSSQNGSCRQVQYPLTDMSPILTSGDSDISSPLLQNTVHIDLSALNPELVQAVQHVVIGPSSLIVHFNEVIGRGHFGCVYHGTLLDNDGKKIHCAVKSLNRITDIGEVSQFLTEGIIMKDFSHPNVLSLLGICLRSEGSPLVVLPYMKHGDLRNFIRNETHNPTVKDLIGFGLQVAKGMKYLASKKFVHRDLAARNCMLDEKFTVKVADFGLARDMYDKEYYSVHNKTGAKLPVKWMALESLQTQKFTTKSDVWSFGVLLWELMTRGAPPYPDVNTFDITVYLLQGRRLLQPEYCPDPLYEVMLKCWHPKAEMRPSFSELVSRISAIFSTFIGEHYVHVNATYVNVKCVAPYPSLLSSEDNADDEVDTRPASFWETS
# Protocol: as §1
# [6] = biological target: T1, Rac1; test: Rac Activation AlphaScreen Assay (RacI AS); assay type: biochemical; settings: wild type Rac1, AlphaLisa assay; read-out: IC50 inhibitory concentration versus wild type Rac1
# [7] = biological target: Rac (Homo sapiens (Human), UniProt P63000); settings: versus NSC23766; cited from earlier work
# [8] = oral administration in mice; cited from earlier work
# [9] = tested on: estrogen positive and HER2 positive breast cancer, prostate cancer, melanoma and colorectal cancer; settings: single agent and in combination with standard of care; cited from earlier work
# [10] = Table 4, comparator compounds, read-out: IC50
# [11] = Table 1, Formula I-A, read-out: Activity
# [12] = NADPH, 37° C., read-out: MLM Clearance (μL/min/mg protein)
# [13] = Table 2, Formula I-B, read-out: IC50
# [14] = Table 3, other compounds of Formula I, read-out: IC50
SMILES,IC50 ([1]; read-out: Rac1 IC50),"IC50 [1, 11]",IC50 [2],other results
"COc1ccc(C(=O)Nc2cccc(-c3ccc4nnc(-c5ccc(C)o5)n4n3)c2)cc1OC [Comparator 1, reference compound]",> 5000 nM,,,"IC50 [1, 10]: 1000 to 10000 nM"
"COc1cc(C(=O)Nc2cccc(-c3ccc4nnc(-c5ccc(C)o5)n4n3)c2)cc(OC)c1OC [Comparator 2, reference compound]",> 5000 nM,,,"IC50 [1, 10]: > 10000 nM"
"COc1ccc(OC)c(C(=O)Nc2cccc(-c3ccc4nnc(-c5ccc(C)o5)n4n3)c2)c1 [Comparator 3, reference compound]",> 5000 nM,,,"IC50 [1, 10]: > 10000 nM"
COc1cccc(C(=O)Nc2cccc(-c3ccc4nnc(-c5ccc(C)o5)n4n3)c2)c1 [Compound 100],80 nM,≤ 1000 nM,11300 nM,
"Cc1ccc(-c2nnc3ccc(-c4cccc(NC(=O)c5cccc(Cl)c5)c4)nn23)o1 [Compound 102, 3-chloro-N-(3-(3-(5-methylfuran-2-yl)-[1,2,4]triazolo[4,3-b]pyridazin-6-yl)phenyl)benzamide]",520 nM,≤ 1000 nM,,"IC50 ([2]; Homo sapiens, 72 h): 1400 nM; microsomal CLint [3, 12]: 19.7 µL/min/mg; activity against all kinases tested [4]: inactive; activity against c-Met [5]: inactive"
"Cc1ccc(-c2nnc3ccc(-c4cccc(NC(=O)c5ccc(F)c(Cl)c5)c4)nn23)o1 [Compound 103, 3-chloro-4-fluoro-N-(3-(3-(5-methylfuran-2-yl)-[1,2,4]triazolo[4,3-b]pyridazin-6-yl)phenyl)benzamide]",430 nM,≤ 1000 nM,,"IC50 ([2]; Homo sapiens, 72 h): 2300 nM; microsomal CLint [3, 12]: 4.5 µL/min/mg"
Cc1ccc(-c2nnc3ccc(-c4cccc(NC(=O)c5cccc(F)c5)c4)nn23)o1 [Compound 105],150 nM,≤ 1000 nM,2000 nM,"MLM Clearance (μL/min/mg protein) ([3]; NADPH, 37° C.): 38.7 μL/min/mg protein"
Cc1ccc(-c2nnc3ccc(-c4cccc(NC(=O)c5ccc(F)c(F)c5)c4)nn23)o1 [Compound 106],270 nM,≤ 1000 nM,3500 nM,"MLM clearance [3]: below 50 μL/min/mg protein; MLM Clearance (μL/min/mg protein) ([3]; NADPH, 37° C.): 28.2 μL/min/mg protein"
"Cc1ccc(-c2nnc3ccc(-c4cccc(NC(=O)c5cccc(SC(C)C)c5)c4)nn23)o1 [Compound 109, 3-(isopropylthio)-N-(3-(3-(5-methylfuran-2-yl)-[1,2,4]triazolo[4,3-b]pyridazin-6-yl)phenyl)benzamide]",,≤ 1000 nM,,
"CCc1cccc(C(=O)Nc2cccc(-c3ccc4nnc(-c5ccc(C)o5)n4n3)c2)c1 [Compound 111, 3-ethyl-N-(3-(3-(5-methylfuran-2-yl)-[1,2,4]triazolo[4,3-b]pyridazin-6-yl)phenyl) benzamide]",,≤ 1000 nM,,MLM clearance [3]: below 50 μL/min/mg protein
"CCc1cc(C(=O)Nc2cccc(-c3ccc4nnc(-c5ccc(C)o5)n4n3)c2)ccc1F [Compound 114, 3-ethyl-4-fluoro-N-(3-(3-(5-methylfuran-2-yl)-[1,2,4]triazolo[4,3-b]pyridazin-6-yl)phenyl)benzamide]",,≤ 1000 nM,,"microsomal CLint ([3]; mouse, read-out: MLM clearance): < 50 µL/min/mg"
"Cc1ccc(-c2nnc3ccc(-c4cccc(NC(=O)c5cccc(Cl)c5)c4)nn23)o1 [Compound 119, 3-chloro-N-(3-(3-(5-(methyl-d3)furan-2-yl)-[1,2,4]triazolo[4,3-b]pyridazin-6-yl)phenyl) benzamide]",1500 nM,,6300 nM,
COc1cccc(C(=O)Nc2cccc(-c3ccc4nnc(-c5cncs5)n4n3)c2)c1 [Compound 200],240 nM,,1800 nM,"IC50 [1, 13]: ≤ 1000 nM; MLM Clearance (μL/min/mg protein) ([3]; NADPH, 37° C.): 54 μL/min/mg protein"
"O=C(Nc1cccc(-c2ccc3nnc(-c4cncs4)n3n2)c1)c1ccc(F)cc1 [Compound 201, 4-fluoro-N-(3-(3-(thiazol-5-yl)-[1,2,4]triazolo[4,3-b]pyridazin-6-yl)phenyl)benzamide]",170 nM,,,"IC50 [1, 13]: ≤ 1000 nM; IC50 ([2]; Homo sapiens, 72 h): 3100 nM; microsomal CLint [3, 12]: 15.5 µL/min/mg"
Cc1ccc(-c2nnc3ccc(-c4cccc(NC(=O)c5cccc(Cl)c5)c4)nn23)s1 [Compound 303],> 5000 nM,,> 10000 nM,"IC50 [1, 14]: 1000 to 10000 nM"
Cc1ccc(-c2nnc3ccc(-c4cccc(NC(=O)c5ccc(F)cc5)c4)nn23)s1 [Compound 304],690 nM,,19800 nM,"IC50 [1, 14]: ≤ 1000 nM"
CCn1c2ccccc2c2cc(Nc3ccnc(NCCCN4CCOCC4)n3)ccc21 [EHop-016],,,,IC50 [6]: ~10000 nM; efficiency as an inhibitor of Rac activity relative to NSC23766 [7]: 100 fold; systemic exposure [8]: low systemic exposure
FC(F)(F)c1ccc2c(SCCCCCCn3cnc(CN4CCOCC4)c3)ccnc2c1 [GY S32661],,,,activity against animal models of cancer [9]: very good activity
